Measured values from patent US12350473B2 (priority 2018, dated 2025).
Where two headings read alike, the source gives them in different places.

Columns and labels:
opioid overdose = test: Examples 10-12: high dose naloxone injection in emergency room opioid overdose cases; format: in vivo, human
Experimental: (§1) A person is admitted to a local emergency room suffering from an opioid overdose. A high dose naloxone composition is administered by injection to the person.
as §1

[1] = system: buprenorphine intravenous induced respiratory depression; conditions: 5 mg and 10 mg naloxone intravenously; cited from earlier work
[2] = in vivo; cited from earlier work
respiratory depression = conditions: IV morphine […] reversed with naloxone 0.4 mg; cited from earlier work
morphine effects = conditions: cited from earlier work
[3] = system: quadriceps femoris muscle injection site; test: Example 13: GLP local tolerance study of naloxone following intramuscular injection; format: in vivo, New Zealand White Rabbits; conditions: for injection site findings: 7-day observation
Experimental: Mortality and clinical observations were recorded twice daily. […] On Day 8, the animals were euthanized and subject to a necropsy examination. A full tissue list was preserved, but only the test site and contralateral site in the other quadriceps femoris were processed for histopathological evaluation.

[4] = in vivo; cited from earlier work; remark: listed apart in the source
[5] = in vivo, cited from earlier work

## C=CCN1CC[C@]23c4c5ccc(O)c4O[C@H]2C(=O)CC[C@@]3(O)[C@H]1C5 [naloxone]
Opioid overdose; Example 10: person, 5 mg in a single injection
  outcome of opioid overdose: recovers from the overdose event
Opioid overdose; Example 11: person, 10 mg in a single injection
  outcome of opioid overdose: recovers from the overdose event
Opioid overdose; Example 12: person, 20 mg in a single injection
  outcome of opioid overdose: recovers from the overdose event
[1]
  reversal of opioid effects: Complete reversal
[2]
  distribution half-life: 4.7 min
  elimination half-life (average): 1.08 h
Respiratory depression
  return to severe respiratory depression after reversal: ≤ 30 min
Morphine effects; 30 mg i.m. naloxone
  reversal of morphine effects at the 30 mg dose: no additional reversal
Morphine effects; intra-muscular, 70 kg subject, morphine 18 or 30 mg/70 kg i.m.
  naloxone dose up to which reversal of the morphine effects was dose related: up to 10 mg
[3]; males receiving 15 mg/animal, attributed to the shaving procedure
  erythema at injection site: low incidence of slight erythema
[3]; rabbits, 5 mg/0.5 mL three times (15 mg total dose), Day 8 necropsy
  histology: effect on the examined tissue: no evidence
[3]; rabbits, IM injection in 3 sites each 2 mg/0.4 mL (total 6 mg)
  injection site findings: no injection site findings attributed to treatment
[3]; rabbits, IM injection in 3 sites each 5 mg/0.5 mL (total 15 mg)
  injection site findings: no injection site findings attributed to treatment

## CC(=O)Oc1ccc2c3c1O[C@H]1[C@@H](OC(C)=O)C=C[C@H]4[C@@H](C2)N(C)CC[C@@]341 [heroin]
[4]
  half-life: 3 to 7 h

## CN1CC[C@]23c4c5ccc(O)c4O[C@H]2[C@@H](O)C=C[C@H]3[C@H]1C5 [morphine]
[5]; iv
  analgesic onset: 6 min
  duration of action: 96 min
[5]
  duration of action: Longer
